Assay results taken from patent US10774110B2, “Rapadocins, inhibitors of equilibrative nucleoside transporter 1 and uses thereof” (The Johns Hopkins University, priority 2016, dated 2020).
Read-outs that look alike come from different tables or passages of the source.

How the values were obtained:
ENT1 [1] = molecular target: T1, ENT1 (Homo sapiens, UniProt P62942+Q99808); test: 3H-Thymidine uptake, potency of Rapadocin analogs (Table 2); format: cell-based; design: endogenous in cells
Excerpt: (§1) Rapadocin is a synthetic macrocycle composed of two ‘domains’—a FKBD (FKBP12 binding domain) and a peptide domain. […] The peptidic fragment can tolerate a range of modifications with varying effects on ENT1 inhibition.
Table 2 discloses the potency of various Rapadocin analogs.
Target sequence in this assay (Q99808 2-456 limits assumed): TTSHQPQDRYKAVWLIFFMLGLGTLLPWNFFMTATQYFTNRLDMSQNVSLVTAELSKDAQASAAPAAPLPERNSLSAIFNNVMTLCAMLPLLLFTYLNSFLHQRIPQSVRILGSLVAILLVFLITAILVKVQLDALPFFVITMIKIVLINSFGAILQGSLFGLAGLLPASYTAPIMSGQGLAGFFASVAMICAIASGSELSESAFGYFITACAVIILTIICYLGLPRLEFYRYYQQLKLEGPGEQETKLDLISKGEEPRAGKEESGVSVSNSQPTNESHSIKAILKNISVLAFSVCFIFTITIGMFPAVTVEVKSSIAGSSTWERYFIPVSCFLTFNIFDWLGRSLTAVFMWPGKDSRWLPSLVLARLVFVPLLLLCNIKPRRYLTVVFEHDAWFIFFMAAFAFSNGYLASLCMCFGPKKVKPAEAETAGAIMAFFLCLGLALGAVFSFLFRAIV
Target sequence in this assay (P62942 2-108 limits assumed): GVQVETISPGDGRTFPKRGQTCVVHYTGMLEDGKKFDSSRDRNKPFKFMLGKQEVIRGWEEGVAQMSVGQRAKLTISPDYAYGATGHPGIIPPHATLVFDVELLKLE

MCF-7 = test: 3H-Thymidine uptake in MCF-7; format: cell-based, human
Excerpt: (§2) uptake in at least seven cell lines and is predicted to inhibit nucleoside uptake in all human cell lines (see e.g., FIG. 2 and Table 1).

293T = test: 3H-Thymidine uptake in 293T; format: cell-based, human
Excerpt: as §2

[2] = tested on: kidney ischemia reperfusion injury; test: Kidney ischemia reperfusion injury mouse model; format: in vivo
Excerpt: as §1
(§3) Two human and animal models have been studied to show the efficacy of Rapadocin (FIGS. 4 and 5). Under several physiological conditions, adenosine is released into the blood where it can act on adenosine receptors. Normally, this adenosine (ADO) is rapidly reabsorbed via ENT1. In the presence of Rapadocin, uptake is inhibited and ADO is able to produce enhanced signaling leading to several potentially beneficial physiological responses.

HUVEC = test: 3H-Thymidine uptake in HUVEC; format: cell-based, human
Excerpt: FIG. 2. Rapadocin inhibits ^3H-Thymidine uptake in Human Umbilical Vein Endothelial Cells (HUVEC).
as §2

ENT1 [3] = molecular target: T1, ENT1; test: 3H-Adenosine / nucleoside uptake by hENT1 (vs hENT2); format: cell-based
Excerpt: FIG. 1. Rapadocin inhibits ^3H-Adenosine uptake by specifically inhibiting hENT1.
Rapadocin inhibits nucleoside
Target sequence in this assay (Q99808 whole entry, the tested form may be a part): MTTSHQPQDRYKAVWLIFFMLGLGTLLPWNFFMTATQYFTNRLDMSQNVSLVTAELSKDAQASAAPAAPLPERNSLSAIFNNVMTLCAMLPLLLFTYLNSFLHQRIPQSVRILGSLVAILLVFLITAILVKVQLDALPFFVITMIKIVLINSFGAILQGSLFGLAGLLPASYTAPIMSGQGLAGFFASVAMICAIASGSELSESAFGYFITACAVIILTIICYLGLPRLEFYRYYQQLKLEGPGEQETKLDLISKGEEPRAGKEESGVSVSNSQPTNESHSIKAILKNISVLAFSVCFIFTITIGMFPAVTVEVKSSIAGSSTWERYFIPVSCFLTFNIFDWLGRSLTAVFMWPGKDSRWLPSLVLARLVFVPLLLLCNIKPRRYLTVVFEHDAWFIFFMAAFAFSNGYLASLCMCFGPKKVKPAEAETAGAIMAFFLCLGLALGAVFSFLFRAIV
Target sequence in this assay (P62942 2-108 limits assumed): as the sequence (P62942 2-108 limits assumed) above

[4] = tested on: platelet aggregation in human blood; test: Platelet aggregation in human blood activated by ADP; format: cell-based; conditions: FIG. 4
Excerpt: as §3

RKO = test: 3H-Thymidine uptake in RKO; format: cell-based, human
Excerpt: as §2

[5] = Solubility in aqueous solutions; format: physicochemical
HeLa = test: 3H-Thymidine uptake in HeLa; format: cell-based, human
Excerpt: as §2

[6] = Stability in cell culture media; format: physicochemical; conditions: 5 days, 37° C., 10% Fetal Bovine Serum
A549 = test: 3H-Thymidine uptake in A549; format: cell-based, human
Excerpt: as §2

FKBP12 = molecular target: T2, FKBP12 (Homo sapiens, UniProt P62942); test: Antagonism of uptake inhibition by FKBP12-binders; format: cell-based; conditions: FIG. 3
T2 construct: endogenous in cells
Excerpt: FIG. 3. Rapadocin's uptake inhibition is antagonized by FKBP12-binders Rapamycin and FK506.

MDA MB-231 = test: 3H-Thymidine uptake in MDA MB-231; format: cell-based, human
Excerpt: as §2

T2 sequence (P62942 whole entry): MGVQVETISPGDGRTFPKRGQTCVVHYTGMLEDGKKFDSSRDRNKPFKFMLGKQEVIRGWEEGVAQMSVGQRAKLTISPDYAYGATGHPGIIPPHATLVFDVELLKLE

In the case of `C#CCCC1(CCOc2ccc(C[C@@H]3NC(=O)[C@H](c4ccccc4)NC(=O)CCC(=O)Nc4cccc(c4)[C@@H](CCc4ccc(OC)c(OC)c4)OC(=O)C4CCCCN4C(=O)C(=O)C(C)(C)COC(=O)C=CCCN(C)C(=O)[C@H](CC(C)C)N(C)C(=O)[C@@H]4CCCN4C3=O)cc2)N=N1` (some centres unmarked) [JW95TyrDiaz], the EC50 (ENT1 [1]) is reported as 0.02 µM.
In the case of `c1ccc2sccc2c1` [Analog 95-15-8], the EC50 (ENT1 [1]; cells printed with uM, read-out: EC50 3H-Tymidine uptake) is reported as > 1 µM.
For `COc1ccc(CC[C@H]2OC(=O)[C@@H]3CCCCN3C(=O)C(=O)C(C)(C)COC(=O)/C=C/CCN(C)C(=O)[C@H](CC(C)C)N(C)C(=O)[C@H]3CCCN3C(=O)[C@H](Cc3ccccc3)N(C)C(=O)[C@H](c3ccccc3)NC(=O)CCC(=O)Nc3cccc2c3)cc1OC` [Rapadocin], the EC50 (MCF-7) was 9 nM, the EC50 (293T) was 5 nM and the tolerability in animals ([2]; kidney ischemia model) was “safely tolerated”. The “protection against kidney ischemia reperfusion injury” value ([2]; mouse model, FIG. 5) was “protects against kidney ischemia reperfusion injury”, the EC50 (HUVEC) was 6.4 nM and the 3H-Thymidine uptake inhibition (HUVEC; FIG. 2) was “inhibits”. The 3H-Adenosine uptake inhibition (ENT1 [3]; FIG. 1, by specifically inhibiting hENT1) was “inhibits”, the “inhibition of nucleoside uptake by hENT1 over hENT2” value (ENT1 [3]; selectivity hENT1 over hENT2, FIG. 1) was “potently and specifically inhibits” and the platelet aggregation [4] was “inhibits platelet aggregation”. The EC50 (RKO) was 11.4 nM, the solubility [5] was ≤ 10 µM and the EC50 (ENT1 [1]) was 0.00616 µM. The EC50 (HeLa) was 16.3 nM, the resistance to degradation [6] was “resist degradation over 5 days” and the EC50 (A549) was 6.3 nM. The “uptake inhibition in presence of FKBP12-binders Rapamycin and FK506” value (FKBP12) was “antagonized” and the EC50 (MDA MB-231) was 41.1 nM.
Compound `COc1ccc(CC[C@H]2OC(=O)[C@@H]3CCCCN3C(=O)C(=O)C(C)(C)COC(=O)C=CCCN(C)C(=O)[C@H](CC(C)C)N(C)C(=O)[C@@H]3CCCN3C(=O)[C@H](Cc3ccc(OCC(=O)NCCOCCOCCNC(=O)CCCCC4SCC5NC(=O)NC54)cc3)NC(=O)[C@H](c3ccccc3)NC(=O)CCC(=O)Nc3cccc2c3)cc1OC` (some centres unmarked) [JW95TyrBiotin] has an EC50 (ENT1 [1]) of 0.064 µM.
